Measured values as given in patent US20240368104A1, “Novel Dialkoxynaphtho[2,3-C]Furan-1(3H)-One Derivatives and Pharmaceutical Composition For Preventing or Treating Respiratory Disease or SARS-COV-2 Infection Disease, Comprising Same” (priority 2021, published 2024).
Where two headings read alike, the source gives them in different places.

How the values were obtained:
[1] = tested on: SFTS virus (KADGH; NCCP43261); assay: microbe, parasite or virus in culture; assay type: cell-based, severe fever with thrombocytopenia syndrome virus; parameters: SI (Selectivity Index, CC50/IC50): unit not given here; conditions: for SI (Selectivity Index, CC50/IC50): SFTS virus; for IC50: Severe fever with thrombocytopenia syndrome virus, Vero, 24 h, read-out: SFTSV inhibition (IC50, μM)
in vitro [2] = conditions: African green monkey
SARS-COV-2 = assay: microbe, parasite or virus in culture; assay type: cell-based; parameters: SI (Selectivity Index, CC50/IC50): unit not given here; conditions: for SI (Selectivity Index, CC50/IC50): SARS-COV-2, values >50 assumed to be 50; for IC50: read-out: SARS-COV-2 inhibition (IC50)
in vitro [3] = conditions: African green monkey; remark: listed apart in the source
dengue virus = assay: Inhibitory effect against dengue virus in Vero E6 cells; assay type: cell-based
Protocol: On the next day, a compound having a concentration of 0.0625 micro M was prepared from a compound having a concentration of 3 micro M and treated to Vero E6 cells, and then the cells treated with the compound were immediately infected with dengue virus (0.01 MOI) and cultured at 37° C. for five days.

Zika virus = assay: Inhibitory effect against Zika virus in Vero cells; assay type: cell-based

Compound | SI (Selectivity Index, CC50/IC50) [1] | IC50 [1] | CC50 (in vitro [2]) | SI (Selectivity Index, CC50/IC50) (SARS-COV-2) | IC50 (SARS-COV-2; Severe acute respiratory syndrome coronavirus 2, Vero, 24 h) | CC50 at 24 h (in vitro [3]) | IC50 (SARS-COV-2; Severe acute respiratory syndrome coronavirus 2, Vero cells, 24 hours infection) | protection from cytopathic effects induced by dengue virus (dengue virus) | EC50 (dengue virus; Dengue virus, Vero C1008, 120 h, 0.01 MOI, five days, read-out: Dengue virus Inhibitory ability (EC50)) | protection from cytopathic effects induced by Zika virus (Zika virus) | EC50 (Zika virus; Zika virus, 120 h, 0.02 MOI, five days, read-out: Zika virus Inhibitory ability (EC50))
COc1cc2cc3c(c(-c4ccc(N(C)c5cccc(C#N)c5)nc4)c2cc1OC)C(=O)OC3.Cl [Example 237, 3-((5-(6,7-dimethoxy-3-oxo-1,3-dihydronaphtho[2,3-c]furan-4-yl)pyridin-2-yl)(methyl)amino)benzonitrile] | 1277 | 0.794 µM | > 50 µM | 61.98 | 0.81 µM | 1020 µM | – | – | – | – | –
COc1cc2cc3c(c(-c4ccc5c(c4)OC(F)(F)O5)c2cc1OC)C(=O)OC3 [Example 221, 9-(2,2-difluorobenzo[d][1,3]dioxol-5-yl)-6,7-dimethoxynaphtho[2,3-c]furan-1(3H)-one] | 11472 | 0.04 µM | > 50 µM | 275.32 | – | 457 µM | 0.18 µM | protects from cytopathic effects | 0.079 µM | protects from cytopathic effects | 0.484 µM
